Data: PMC11836371, “Virtual fragment screening for DNA repair inhibitors in vast chemical space” (Nature Communications, 2025)
In brackets after ≈: the same amount, converted by molar mass. Several values for one entry are separate records, joined by “and”; a condition that tells them apart may be missing. Equal entries are not always repeated. Where two headings read alike, the source gives them in different places. One block for each molecule: values may come before it.

Assays:
[1] = tested on: A2780 cells; assay: Cancer cell viability assay (resazurin), A2780; assay type: cell-based; design: key to cell viability, cytotoxicity curve (Figure3H): % viability relative to untreated control wells
Method: (§1) Three different cancer cell lines A2780 (ovarian cancer, ECACC 93112519), A549 (lung cancer, ATCC 60150896) and HCT116 (colon cancer, ATCC CCL-247), and one immortalized fibroblast cell line (BJhTERT) as control, were seeded in black/clear 384-well plates (Corning #3764), 50 µL/well, containing 11 concentrations, nano-dispensed, dose-response curves of the test compounds. A2780, HCT116, and HEK293T cell lines were authenticated with STR profiling, frozen down, and these stocks were used in experiments. The A2780 cells were cultured in RPMI 1640, the A549 and BJhTERT cells in DMEM, and the HCT116 cells in McCoys 5 A medium. All media were supplemented with 10% FBS and 1% P/S. All cell culture media, additives, and reagents were purchased from Thermo Fisher Scientific. The cell plates were incubated 72 hours in a humidified incubator at 37 °C with 5% CO2, after which resazurin (Sigma-Aldrich), 10 µL/well, was added to a final concentration of 10 µg/mL. The plates were incubated for 6 hours with resazurin followed by fluorescence readings in a Sense plate reader (Hidex), resorufin protocol (ex 544 nm/em 595 nm). The cell viability was calculated compared to untreated control wells and the EC50 values were determined in XLfit (IDBS).

[2] = Cell viability assay (resazurin), BJhTERT non-transformed control; assay type: cell-based; conditions: human, BJhTERT immortalized fibroblast cells, BJhTERT
Method: (§2) A2780, HCT116, and HEK293T cell lines were authenticated with STR profiling, frozen down, and these stocks were used in experiments. […] All media were supplemented with 10% FBS and 1% P/S. All cell culture media, additives, and reagents were purchased from Thermo Fisher Scientific. The cell plates were incubated 72 hours in a humidified incubator at 37 °C with 5% CO2, after which resazurin (Sigma-Aldrich), 10 µL/well, was added to a final concentration of 10 µg/mL. […] The cell viability was calculated compared to untreated control wells and the EC50 values were determined in XLfit (IDBS).

[3] = tested on: BJhTERT cells; assay: as above; assay type: cell-based; conditions: BJhTERT
Method: as §2

[4] = Caco-2 cell permeability assay; assay type: in vitro ADME; conditions: human, Caco-2, pH 7.4; for Papp A→B at 60 min, 10 µM: read-out: Papp AB (10–6 cm/s); for Papp B→A at 60 min, 10 µM: read-out: Papp BA (10–6 cm/s)
Method: Prior to the experiment a drug solution of 10 µM was prepared and warmed to 37 °C. The Caco-2 filters were washed with pre-warmed HBSS prior to the experiment, and thereafter the experiment was started by applying the donor solution on the apical or basolateral side. The transport experiments were carried out at pH 7.4 in both the apical and basolateral chamber. The experiments were performed at 37 °C and with a stirring rate of 500 rpm. The receiver compartment was sampled at 15, 30, and 60 min, and at 60 min also a final sample from the donor chamber was taken to calculate the mass balance of the compound. The samples (100 µL) were transferred to a 96-well plate containing 100 µL methanol and Warfarin as IS and was sealed until analyzed by liquid chromatography coupled to triple quadrupole mass spectrometry (LC-MS/MS).

[5] = molecular target: T1, human OGG1 enzyme (Homo sapiens, UniProt O15527); assay: Differential scanning fluorimetry (DSF) thermal shift assay; assay type: binding; design: ∆Tm (K): unit of the concentration uncertain; conditions: for ΔTm: concentration not given
Method: The temperature was increased from 20 °C to 85 °C with 10 readings/degree. Tm values were calculated using an excel template and fitting to the Boltzmann equation in Prism v.6.07 (GraphPad Software).

[6] = Plasma protein binding in human plasma (RED); assay type: in vitro ADME; conditions: plasma (50% plasma, 50% isotonic buffer), pH 7.4, read-out: Protein plasma binding, fu (%)
Method: Pooled human plasma was provided by Uppsala Academic Hospital and was collected from two donors (non-smoking) (citric acid). In brief, 0.2 mL of the plasma (50% plasma, 50% isotonic buffer) test solution (typically 10 µM final compound concentration) was transferred to the membrane tube in the RED insert (ThermoFisher Scientific). 0.35 ml isotonic phosphate buffer pH 7.4 was added to the other side of the membrane. The 96-well base plate was then sealed with an adhesive plastic film (Scotch Pad) to prevent evaporation. The sample was incubated with rapid rotation (>>900 rpm) on a Kisker rotational incubator at 37 °C for 4 h to achieve equilibrium. Prior to LC-MS/MS analysis the plasma and buffer samples were treated with the addition of Methanol (1:3) containing Warfarin as an internal standard to precipitate proteins. The standard curve was created using the plasma standard. The plate was then sealed, and centrifuged and the supernatant was analyzed by liquid chromatography coupled to triple quadrupole mass spectrometry (LC-MS/MS).

[7] = molecular target: T1, human OGG1 enzyme; assay: OGG1 glycosylase activity assay (enzyme inhibition, APE1-coupled fluorescence); assay type: biochemical
[8] = Thermodynamic solubility; assay type: physicochemical; conditions: for solubility thermodynamic: thermodynamic from solid
[9] = tested on: A549 cells; assay: Cancer cell viability assay (resazurin), A549; assay type: cell-based; conditions: two independent experiments
Method: as §1

[10] = tested on: HCT116 cells; assay: Cancer cell viability assay (resazurin), HCT116; assay type: cell-based; conditions: two independent experiments
Method: as §1

T1 sequence (O15527 whole entry): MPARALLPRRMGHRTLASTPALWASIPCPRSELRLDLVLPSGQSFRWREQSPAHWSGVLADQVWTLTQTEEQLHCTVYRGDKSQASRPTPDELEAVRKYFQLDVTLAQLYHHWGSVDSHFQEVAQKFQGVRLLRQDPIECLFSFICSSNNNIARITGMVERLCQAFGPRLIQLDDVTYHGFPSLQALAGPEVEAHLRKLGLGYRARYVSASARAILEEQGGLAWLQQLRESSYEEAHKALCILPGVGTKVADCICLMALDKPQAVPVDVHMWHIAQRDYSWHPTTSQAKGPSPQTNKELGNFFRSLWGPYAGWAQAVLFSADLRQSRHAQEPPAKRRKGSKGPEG

SMILES: O=C(Nc1ccc(I)cc1)N1CCC(n2c(=O)[nH]c3c(Br)cccc32)CC1 [TH5487, reference compound]
cell viability, cytotoxicity curve (Figure3H) ([1]; A2780, Log conc. (M) 1.69824e-9): 121.27 and 94.15 | cell viability, cytotoxicity curve (Figure3H) ([1]; A2780, Log conc. (M) 5.12861e-9): 114.3 and 105.95 | cell viability, cytotoxicity curve (Figure3H) ([1]; A2780, Log conc. (M) 1.51356e-8): 105.54 and 93.28 | cell viability, cytotoxicity curve (Figure3H) ([1]; A2780, Log conc. (M) 4.57088e-8): 111.22 and 83.28 | cell viability, cytotoxicity curve (Figure3H) ([1]; A2780, Log conc. (M) 1.38038e-7): 102.55 and 80.89 | cell viability, cytotoxicity curve (Figure3H) ([1]; A2780, Log conc. (M) 4.0738e-7): 93.7 and 80.77 | cell viability, cytotoxicity curve (Figure3H) ([1]; A2780, Log conc. (M) 1.23027e-6): 109.2 and 106.39 | cell viability, cytotoxicity curve (Figure3H) ([1]; A2780, Log conc. (M) 3.71535e-6): 104.11 and 96.04 | cell viability, cytotoxicity curve (Figure3H) ([1]; A2780, Log conc. (M) 1.12202e-5): 67.93 and 61.64 | cell viability, cytotoxicity curve (Figure3H) ([1]; A2780, Log conc. (M) 3.31131e-5): 4.85 and 2.91 | cell viability, cytotoxicity curve (Figure3H) ([1]; A2780, Log conc. (M) 0.0001): 1.49 and 1.08 | viability at 72 h, 1.69824e-09 M ([2]; Log conc. (M) 1.69824e-9, read-out: cell viability, cytotoxicity curve (Figure3H)): 74.4% | viability at 72 h, 5.12861e-09 M ([2]; Log conc. (M) 5.12861e-9, read-out: cell viability, cytotoxicity curve (Figure3H)): 72.6% | viability at 72 h, 1.51356e-08 M ([2]; Log conc. (M) 1.51356e-8, read-out: cell viability, cytotoxicity curve (Figure3H)): 78% | viability at 72 h, 4.57088e-08 M ([2]; Log conc. (M) 4.57088e-8, read-out: cell viability, cytotoxicity curve (Figure3H)): 84% | viability at 72 h, 1.38038e-07 M ([2]; Log conc. (M) 1.38038e-7, read-out: cell viability, cytotoxicity curve (Figure3H)): 81.8% | viability at 72 h, 4.0738e-07 M ([2]; Log conc. (M) 4.0738e-7, read-out: cell viability, cytotoxicity curve (Figure3H)): 80.5% | viability at 72 h, 1.23027e-06 M ([2]; Log conc. (M) 1.23027e-6, read-out: cell viability, cytotoxicity curve (Figure3H)): 81.8% | viability at 72 h, 3.31131e-05 M ([2]; Log conc. (M) 3.31131e-5, read-out: cell viability, cytotoxicity curve (Figure3H)): 47% | viability at 72 h, 0.0001 M ([2]; Log conc. (M) 0.0001, read-out: cell viability, cytotoxicity curve (Figure3H)): 5.37% | cell viability, cytotoxicity curve (Figure3H) ([3]; Log conc. (M) 1.69824e-9): 92.09 | cell viability, cytotoxicity curve (Figure3H) ([3]; Log conc. (M) 5.12861e-9): 85.03 | cell viability, cytotoxicity curve (Figure3H) ([3]; Log conc. (M) 1.51356e-8): 85.22 | cell viability, cytotoxicity curve (Figure3H) ([3]; Log conc. (M) 4.57088e-8): 94.5 | cell viability, cytotoxicity curve (Figure3H) ([3]; Log conc. (M) 1.38038e-7): 96.92 | cell viability, cytotoxicity curve (Figure3H) ([3]; Log conc. (M) 4.0738e-7): 95.59 | cell viability, cytotoxicity curve (Figure3H) ([3]; Log conc. (M) 1.23027e-6): 90.96 | cell viability, cytotoxicity curve (Figure3H) ([3]; Log conc. (M) 3.71535e-6): 95.28 and 121.4 | cell viability, cytotoxicity curve (Figure3H) ([3]; Log conc. (M) 1.12202e-5): 71.74 and 94.42 | cell viability, cytotoxicity curve (Figure3H) ([3]; Log conc. (M) 3.31131e-5): 58.03 | cell viability, cytotoxicity curve (Figure3H) ([3]; Log conc. (M) 0.0001): 5.96 | Papp A→B at 60 min, 10 µM [4]: 4.16 ×10⁻⁶ cm/s | Papp B→A at 60 min, 10 µM [4]: 4.83 ×10⁻⁶ cm/s | ∆Tm (K) ([5]; 495 µM): 4.3 K | ∆Tm (K) ([5]; 495 (unit uncertain) as printed in sheet footnote): 4.3 K | ΔTm [5]: 4.3 K | fraction unbound at 4 h, 10 µM [6]: 0.001 | IC50 ([7]; read-out: IC50): 340 nM | solubility thermodynamic [8]: < 1 µM

efflux ratio at 60 min, 10 µM [4]: 6.7 | Papp A→B at 60 min, 10 µM [4]: 19.8 ×10⁻⁶ cm/s | Papp B→A at 60 min, 10 µM [4]: 134 ×10⁻⁶ cm/s | ∆Tm (K) ([5]; 99 μM): 8.1 ± 0.1 K | ∆Tm (K) ([5]; 99 μM, listed as Compound 17): 8.1 K | ∆Tm (K) ([5]; 99 (unit uncertain) as printed in sheet footnote): 8.1 ± 0.1 K | ΔTm [5]: 8.1 K | fraction unbound at 4 h, 10 µM [6]: 0.014 | OGG1 inhibition, dose-response (Figure2C) ([7]; Concentration (M) 1.93e-7): 17.95 and 20.93 and 16.93 and 26.66 | OGG1 inhibition, dose-response (Figure2C) ([7]; Concentration (M) 3.87e-7): 29.14 and 34.59 and 30.82 and 38.2 | OGG1 inhibition, dose-response (Figure2C) ([7]; Concentration (M) 7.73e-7): 44.06 and 48.74 and 48.24 and 52.23 | OGG1 inhibition, dose-response (Figure2C) ([7]; Concentration (M) 1.55e-6): 58.26 and 62.87 and 66.96 and 67.73 | OGG1 inhibition, dose-response (Figure2C) ([7]; Concentration (M) 3.09e-6): 72.68 and 77.92 and 76.19 and 83.17 | OGG1 inhibition, dose-response (Figure2C) ([7]; Concentration (M) 6.19e-6): 85.12 and 84.21 and 85.13 and 86.27 | OGG1 inhibition, dose-response (Figure2C) ([7]; Concentration (M) 1.24e-5): 90.55 and 92.85 and 89.92 and 91.47 | OGG1 inhibition, dose-response (Figure2C) ([7]; Concentration (M) 2.48e-5): 92.75 and 97.64 and 93.54 and 94.76 | OGG1 inhibition, dose-response (Figure2C) ([7]; Concentration (M) 4.95e-5): 96.49 and 97.45 and 94.85 and 97.57 | OGG1 inhibition, dose-response (Figure2C) ([7]; Concentration (M) 9.9e-5): 96.97 and 96.91 and 94.08 and 97.24 | IC50 ([7]; Figure 3B source data, three independent experiments, read-out: IC50 OGG1): 505 nM and 495 nM and 518 nM | increase of inhibitory potency compared to fragment 1 ([7]; ratio of IC50 values): > 165 fold | IC50 ([7]; read-out: IC50): 600 nM | fold higher solubility than TH5487 [8]: > 600 fold and > 667 fold | solubility thermodynamic [8]: 667 µM (≈ 234 µg/mL)
SMILES: Cc1nc(-c2ccc(CC(=O)Nc3noc4c3CCCC4)cc2)c(C)[nH]1 [compound 17]
percentage cell viability ([1]; A2780, 100 μM, two independent experiments, 100 µM): 6.29% | viability at 100 µM ([1]; Homo sapiens, A2780, A2780, 100 μM, two independent experiments, read-out: percentage cell viability): 5.42% | viability at 72 h, 100 µM ([2]; 100 μM, two independent experiments, read-out: percentage cell viability): 28% | percentage cell viability ([3]; 100 μM, two independent experiments): 38.43% | percentage cell viability ([9]; A549, 100 μM, 100 µM): 56.76% | viability at 100 µM ([9]; Homo sapiens, A549, A549, 100 μM, read-out: percentage cell viability): 52.6% | percentage cell viability ([10]; HCT116, 100 μM, 100 µM): 23.58% | viability at 100 µM ([10]; Homo sapiens, HCT-116, HCT116, 100 μM, read-out: percentage cell viability): 11.8%
